Data from ChEMBL document CHEMBL5137121, “Spiroisoxazoline Inhibitors of Acetylcholinesterase from Pseudoceratina verrucosa. Quantitative Chiroptical Analysis of Configurational Heterogeneity, and Total Synthesis of (±)-Methyl Purpuroceratate C” (J Nat Prod, 2022).

Legend:
[1] = Selectivity index, ratio of IC50 for horse BuChE to IC50 for electric eel AChE
Cholinesterase = Cholinesterase (Equus caballus, UniProt P81908); assay: Inhibition of horse BuChE using butyrylthiocholine as substrate preincubated with enzyme for 30 mins followed by substrate addition by Ellman's method
Sequence of Cholinesterase (P81908 whole entry): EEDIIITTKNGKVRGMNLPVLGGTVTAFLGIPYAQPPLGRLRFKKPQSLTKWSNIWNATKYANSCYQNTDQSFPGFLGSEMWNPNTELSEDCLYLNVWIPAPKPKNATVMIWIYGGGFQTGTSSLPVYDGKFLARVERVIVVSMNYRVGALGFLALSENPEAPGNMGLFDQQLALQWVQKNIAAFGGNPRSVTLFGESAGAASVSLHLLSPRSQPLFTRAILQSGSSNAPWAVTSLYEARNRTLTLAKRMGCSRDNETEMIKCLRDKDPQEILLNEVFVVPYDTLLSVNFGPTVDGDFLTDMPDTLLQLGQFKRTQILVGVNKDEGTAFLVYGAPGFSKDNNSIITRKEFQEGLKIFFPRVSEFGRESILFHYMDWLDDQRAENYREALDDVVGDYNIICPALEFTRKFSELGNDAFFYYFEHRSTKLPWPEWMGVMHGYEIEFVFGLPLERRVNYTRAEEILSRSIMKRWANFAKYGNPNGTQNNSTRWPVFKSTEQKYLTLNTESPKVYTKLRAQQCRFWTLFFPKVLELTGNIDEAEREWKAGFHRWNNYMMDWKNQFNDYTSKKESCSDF

Acetylcholinesterase = Acetylcholinesterase (Electrophorus electricus, UniProt O42275); assay: Inhibition of electric eel AChE using acetylthiocholine as substrate preincubated with enzyme for 30 mins followed by substrate addition by Ellman's method
Sequence of Acetylcholinesterase (O42275 whole entry): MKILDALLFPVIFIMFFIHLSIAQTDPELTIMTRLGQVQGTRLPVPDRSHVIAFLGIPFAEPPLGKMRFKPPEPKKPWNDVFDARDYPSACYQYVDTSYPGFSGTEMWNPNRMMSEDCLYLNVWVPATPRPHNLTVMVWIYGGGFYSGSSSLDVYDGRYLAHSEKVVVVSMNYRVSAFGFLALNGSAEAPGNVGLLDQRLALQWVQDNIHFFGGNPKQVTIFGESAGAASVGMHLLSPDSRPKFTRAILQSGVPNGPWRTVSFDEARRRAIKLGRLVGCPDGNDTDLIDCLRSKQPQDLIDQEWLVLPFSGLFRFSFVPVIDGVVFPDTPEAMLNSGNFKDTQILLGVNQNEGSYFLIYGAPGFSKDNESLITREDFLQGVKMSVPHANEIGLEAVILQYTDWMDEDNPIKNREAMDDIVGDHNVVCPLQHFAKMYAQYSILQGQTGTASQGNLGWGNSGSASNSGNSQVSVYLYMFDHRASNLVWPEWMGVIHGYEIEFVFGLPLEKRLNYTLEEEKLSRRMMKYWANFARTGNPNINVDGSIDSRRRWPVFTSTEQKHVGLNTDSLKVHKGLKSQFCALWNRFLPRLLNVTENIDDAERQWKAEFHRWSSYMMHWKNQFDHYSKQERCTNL

| SMILES | Ratio IC50 [1] | IC50 (Cholinesterase) | IC50 (Acetylcholinesterase) |
| --- | --- | --- | --- |
| COC1=C(Br)[C@H](O)[C@@]2(C=C1Br)CC(C(=O)NCCc1cc(Br)c(O)c(Br)c1)=NO2 | 1.9 | 10.7 µM | 5.8 µM |
| COC1=C(Br)[C@H](O)[C@@]2(C=C1Br)CC(C(N)=O)=NO2 | 4.6 | 15.4 µM | 3.32 µM |
| COC1=C(Br)[C@H](O)[C@@]2(C=C1Br)CC(C(=O)NCCc1cc(Br)c(OCCC(C(=O)[O-])[N+](C)(C)C)c(Br)c1)=NO2 (stereo not given in full) | 2.1 | 10 µM | 4.79 µM |
| COC1=C(Br)[C@H](O)[C@@]2(C=C1Br)CC(C(=O)NCCCCCNC(=N)N)=NO2 [APLYSINAMISINE II] | 13 | 10.3 µM | 0.77 µM |
| COC1=C(Br)[C@H](O)[C@@]2(C=C1Br)CC(C(=O)NCCCOc1c(Br)cc(C[C@H](N)C(=O)O)cc1Br)=NO2 | > 5 | > 100 µM | 19.9 µM |
